Measured values published in US20260306460A1, “COMPOSITION FOR REMOVING AND INHIBITING SENESCENT CELLS, AND USES THEREOF” (LIFECEUTIX CO., LTD., priority 2023, published 2026).

What was measured:
Assay type in all cases: in vivo, mouse
[1] = tested on: bleomycin-induced scleroderma C57BL6J mice; test: Bleomycin scleroderma in mice (p16, COL1A1 mRNA, dermal thickness), Example 24-2, Table 48; conditions: daily for 21 days; for p16 mRNA: untreated 100 (±8.8); for Col1a1 mRNA: untreated 100 (±13.2); for Dermal Thickness: untreated 459 (±38.7)
Description: Eight-week-old male C57BL6J mice (KRIBB Laboratory Animal Resource Center) were acclimated to the experimental environment for one week. Then, 100 μl of the anticancer drug bleomyxin (1 mg/ml) was administered subcutaneously every other day to induce scleroderma for more than three weeks. Mice with scleroderma were randomly assigned to experimental and control groups. LX-403 was mixed with a 10% ethanol solution of PEG400 and administered orally at a concentration of 25 mg/kg daily for 21 days or administered directly to the skin at a concentration of 1 μM. LX-1801 was mixed with a solution of 4% DMSO, 30% PEG300, and 5% Tween80 in distilled water and administered subcutaneously at a concentration of 0.4 μM daily for 21 days. LX-2001 was mixed in PBS and administered intradermally at a concentration of 2 μM daily for 21 days. LX-2002 was mixed in distilled water with 4% DMSO, 30% PEG300, and 5% Tween80 and administered intradermally at a concentration of 2 μM daily for 21 days. […] LX-2005 was mixed in distilled water with 4% DMSO, 30% PEG300, and 5% Tween80 and administered intradermally at a concentration of 90 μM daily for 21 days. LX-2007 was mixed in distilled water with 4% DMSO, 30% PEG300, and 5% Tween80 and administered intradermally at a concentration of 90 μM daily for 21 days. […] LX-3002 was mixed with distilled water with 4% DMSO, 30% PEG300, 5% tween80 and administered orally at 10 mg/kg daily for 21 days. […] LX-5411 was mixed with 5% PBS and administered orally at 10 mg/kg daily for 21 days or subcutaneously at 3 μM. LX-5701 was mixed with PBS and administered orally at 360 mg/kg daily for 21 days. LX-6807 was mixed in saline and administered intraperitoneally at a concentration of 1 mg/kg daily for 21 days. The control group was administered only the solution in the same volume. After the end of drug administration, mice were sacrificed in the same manner as in Example 7-2 of WO2023-085787 A1, RNA was extracted from skin tissue, and the synthesized cDNA was used to perform and analyze the mRNA amounts of p16 and collagen (COL1A1) by qRT-PCR (quantitative real-time PCR). In addition, to measure the degree of bleomycin-induced skin hardening, skin frozen sections were stained with H/E (Hematoxylin/Eosin), and the thickness of the dermis was observed under an optical microscope.

[2] = tested on: naturally aged C57BL6J mice; test: Joint aging (arthritis marker mRNA) in naturally aged mice, Example 21-12, Table 27
Description: (§1) 22-month-old female C57BL6J mice (KRIBB Laboratory Animal Resource Center) were acclimated to the experimental environment for one week, after which the aged mice were randomly assigned to experimental and control groups. Eight-week-old, non-aged mice served as controls. LX-403 was mixed in a 10% ethanol solution of PEG400 and administered orally at a concentration of 25 mg/kg daily for 21 days, or administered to the skin, joints, or eyes at a concentration of 1 μM. LX-1801 was mixed in distilled water with 4% DMSO, 30% PEG300, and 5% Tween80 and administered to the skin, joints, or eyes at a concentration of 0.4 μM daily for 21 days. LX-2001 was mixed in PBS and administered to the skin, joints, or eyes at a concentration of […] daily for 21 days. LX-2002 was mixed in distilled water with 4% DMSO, 30% PEG300, and 5% Tween80 and administered to the skin, joints, or eyes at a concentration of 2 μM daily for 21 days. […] LX-2005 was mixed in distilled water with 4% DMSO, 30% PEG300, and 5% Tween80 and administered to the skin, joints, or eyes at a concentration of 90 μM daily for 21 days. LX-2007 was mixed in distilled water with 4% DMSO, 30% PEG300, and 5% Tween80 and administered to the skin, joints, or eyes at a concentration of 90 μM daily for 21 days. […] LX-3002 was mixed in distilled water with 4% DMSO, 30% PEG300, and 5% Tween80 and administered orally at a concentration of 10 mg/kg daily for 21 days. […] LX-5411 was mixed in 5% PBS and administered orally at a concentration of 10 mg/kg daily for 21 days or administered to the skin, joints, or eyes at a concentration of 3 μM. LX-5701 was mixed in PBS and administered orally at a concentration of 360 mg/kg daily for 21 days. LX-6807 was mixed in saline and administered intraperitoneally at a concentration of 1 mg/kg daily for 21 days. LX-2101 or LX-2102 was mixed in PBS solution with 5% DMSO and administered intraperitoneally at a concentration of 20 mg/kg or 10 mg/kg, respectively, daily for 21 days. The control group received only the solution in the same volume. After the end of drug administration, the methods described in each example below were performed.
RNA was extracted from joint tissue as described in Example 7-2 of WO2023-085787 A1, and qRT-PCR was performed using the synthesized cDNA. […] To analyze joint pain due to joint aging, hotplate analysis was performed. Specifically, thermal pain thresholds were measured using a hot plate. After acclimating mice to a temperature of 30° C. for 10 minutes, the time required for hind paw licking or jumping responses to occur at 55° C. was measured. To prevent tissue damage, the response was measured for less than 30 seconds, and the average value was used from five measurements.

[3] = tested on: naturally aged C57BL6J mice; test: Geriatric depression and anxiety in aged mice, Example 21-8; conditions: for amount of SASP, p16, SA-β-gal, lipofuscin / symptoms of geriatric depression and anxiety: aged mice
Description: The amount of senescent-associated secretory factor (SASP) in serum and tissues collected from mice of Examples 21-5 and 21-6 was reduced by treatment with LX-5701, LX-2101, or LX-2102. It was confirmed that removing senescent cells, which increase with aging in mice, and effectively reducing the amount of senescent-associated secretory factor (SASP) can improve symptoms of geriatric depression and anxiety.

[4] = tested on: naturally aged C57BL6J mice; test: Frailty (open field, wire hanging, grip strength, muscle and fat tissue) in naturally aged mice, Example 21-7, Table 23; conditions: for Fat Mass (g): inguinal and epididymal fat, untreated aged 0.82 (±0.19); for Muscle Mass (g): quadriceps and gastrocnemius, untreated aged 0.64 (±0.06); for Grip Sterenght Test Strength (%) / Open Field Test Time in Center (%) / Wire Hanging Test Time (%): untreated aged = 100%
Description: as §1
To analyze frailty due to aging in mice, an activity test (open field test), an endurance test (wire hanging test), and a muscle strength and grip strength test (grip strength test) were performed using the same method as in Example 7-7 of WO2023-085787 A1. The table below quantitatively represents the results of activity, endurance, muscle strength, and grip strength, which are criteria for assessing frailty, under conditions in which aging was induced and the test compound was not administered or administered. The amount of each evaluation after aging was calculated as 100% and compared with the amount of each evaluation after treatment with the drug of the present invention.

| Molecule | p16 mRNA [1] | Col1a1 mRNA [1] | Dermal Thickness [1] | Col2a1 mRNA (fold) [2] | amount of SASP, p16, SA-β-gal, lipofuscin [3] | symptoms of geriatric depression and anxiety [3] | amount of SASP in serum and tissues ([3]; mice of Examples 21-5 and 21-6) | Fat Mass (g) [4] | Muscle Mass (g) [4] | Grip Sterenght Test Strength (%) [4] | Open Field Test Time in Center (%) [4] | Wire Hanging Test Time (%) [4] |
| --- | --- | --- | --- | --- | --- | --- | --- | --- | --- | --- | --- | --- |
| O=C(C(C[N+](=O)[O-])=NO)N1CCN(C(c2ccc(Cl)cc2)c2ccc(Cl)cc2)CC1 [LX-403] | 34.7 (±4.1) % | 45.7 (±4.5) % | 356 (±36.3) μm | 2.9 (±0.2) fold |  |  |  |  |  |  |  |  |
| COC(=O)c1ccc([C@H]2c3[nH]c4ccccc4c3C[C@H](C(=O)OC)N2C(=O)CCl)cc1 [LX-405] |  |  |  |  | reduced | improved |  |  |  |  |  |  |
| C[C@@H]1CC[C@@]23C[C@H](O)C(=O)[C@@]2(O)[C@]1(C)[C@H](OC(=O)CCl)C[C@@H](C1=CCn2c(=O)n(-c4ccccc4)c(=O)n2C1)[C@@H]3C [LX-1801, (2S,3aS,4S,5R,7R,8S,8aS,11R)-7-(1,3-Dioxo-2-phenyl-2,3,5,8-tetrahydro-1H-[1,2,4]triazolo[1,2-a]pyridazin-6-yl)-2,3a-dihydroxy-4,8,11-trimethyl-3-oxooctahydro-1H-4,8a-propanoazulen-5-yl 2-Chloroacetate] | 35.4 (±5.6) % | 47.8 (±4.7) % | 418 (±42.3) μm | 2.6 (±0.2) fold |  |  |  |  |  |  |  |  |
| C[C@H]1[C@H](C)CC[C@]2(C(=O)O)CC[C@]3(C)C(=CC[C@@H]4[C@@]5(C)CC[C@H](O)C(C)(C)[C@@H]5CC[C@]43C)[C@H]12 [LX-2001, Ursolic acid] | 64.2 (±4.4) % | 62.8 (±5.6) % | 394 (±78.4) μm | 1.8 (±0.2) fold |  |  |  |  |  |  |  |  |
| C[C@H]1[C@H](C)CC[C@]2(C(=O)O)CC[C@]3(C)C(=CC[C@@H]4[C@@]5(C)C[C@@H](O)[C@H](O)C(C)(C)[C@@H]5CC[C@]43C)[C@H]12 [LX-2002, Corosolic acid] | 51.3 (±2.6) % | 71.2 (±4.2) % | 427 (±60.1) μm | 1.7 (±0.3) fold |  |  |  |  |  |  |  |  |
| CC1(C)CC[C@]2(C(=O)O)CC[C@]3(C)C(=CC[C@@H]4[C@@]5(C)CC[C@H](O)C(C)(C)[C@@H]5CC[C@]43C)[C@@H]2C1 [LX-2003, Oleanolic acid] | 72.4 (±5.8) % | 73.8 (±3.5) % | 411 (±81.3) μm | 1.9 (±0.2) fold |  |  |  |  |  |  |  |  |
| C=C(C)[C@@H]1CC[C@]2(C(=O)O)CC[C@]3(C)[C@H](CC[C@@H]4[C@@]5(C)CC[C@H](O)C(C)(C)[C@@H]5CC[C@]43C)[C@@H]12 [LX-2005, Betulinic acid] | 62.8 (±4.6) % | 68.2 (±2.4) % | 432 (±61.7) μm | 2.2 (±0.1) fold |  |  |  |  |  |  |  |  |
| CC1(C)C=C2[C@H]3CC[C@@H]4[C@@]5(C)CCC(=O)C(C)(C)[C@@H]5CC[C@@]4(C)[C@]3(C)CC[C@@]2(C(=O)O)CC1 [LX-2007, Moronic acid] | 75.1 (±3.5) % | 80.5 (±4.0) % | 421 (±83.6) μm | 1.6 (±0.2) fold |  |  |  |  |  |  |  |  |
| COC(=O)[C@]12CCC(C)(C)C[C@H]1[C@H]1C(=O)C=C3[C@@]4(C)C=C(C#N)C(=O)C(C)(C)[C@@H]4CC[C@@]3(C)[C@]1(C)CC2 [LX-2102, Bardoxolone methyl] |  |  |  |  |  |  | reduced | 0.97 (±0.16) g | 0.76 (±0.05) g | 116 (±9.2) % | 109 (±8.6) % | 120 (±7.5) % |
| CCCC\C=C/C=C/C=C\CCCCCCCC(=O)O [LX-2707, Punicic acid] | 67.5 (±4.7) % | 64.1 (±2.0) % | 389 (±23.6) μm |  | reduced | improved |  | 0.98 (±0.20) g | 0.67 (±0.07) g | 117 (±3.6) % | 198 (±19.4) % | 135 (±13.3) % |
| COC(=O)[C@H]1Cc2c([nH]c3ccccc23)[C@H](c2ccc(S(C)(=O)=O)cc2)N1C(=O)CCl [LX-5401, methyl (1S,3R)-2-(2-chloroacetyl)-1-(4-(methylsulfonyl)phenyl)-2,3,4,9-tetrahydro-1H-pyrido[3,4-b]indole-3-carboxylate] | 61.2 (±6.7) % | 74.6 (±2.4) % | 401 (±46.3) μm |  | reduced | improved |  |  |  |  |  |  |
| C#CC(=O)N1[C@@H](CCCC)Cc2cc(OC)ccc2[C@@H]1c1ccc(NC23CC4CC(CC(C4)C2)C3)cc1 [LX-5411] | 43.8 (±3.0) % | 55.3 (±1.6) % | 376 (±47.1) μm | 3.3 (±0.3) fold | reduced | improved |  |  |  |  |  |  |
| Tocofersolan [LX-3001] | 76.1 (±5.5) % | 81.4 (±2.5) % | 421 (±28.4) μm |  | reduced | improved |  | 0.95 (±0.12) g | 0.70 (±0.1) g | 115 (±4.7) % | 187 (±12.9) % | 126 (±11.4) % |
